Measurements reported in US20240279613A1, “METHOD OF PRODUCING ENTEROENDOCRINE CELL, ENTEROENDOCRINE CELL DERIVED FROM PLURIPOTENT STEM CELL, CULTURE MEDIUM OR CULTURE MEDIUM KIT, AND USE THEREOF” (FUJIFILM Corporation, priority 2021, published 2024).

What was measured:
[1] = tested on: Human iPS cell-derived intestinal epithelial cells F-hiSIEC; experiment: Gene expression of EEC markers in F-hiSIEC cells cultured in culture media of Table 1 (real-time PCR, Day 9); assay type: cell-based; details: LY411575 (composition 4, 1 μmol/L, no EGF) compared with DAPT (composition 6, 10 μmol/L)
Description: (§1) Human iPS cell-derived intestinal epithelial cells (including intestinal stem cells, LGR5+ cells) F-hiSIEC™ (FUJIFILM Corporation) were thawed on the day 0 and seeded at 1.0×10^6 cells/well on a cell culture insert coated with Matrigel™ (Corning Incorporated) by using F-hiSIEC™ Seeding Medium (FUJIFILM Corporation), and then from the next day, the culture medium was exchanged every other day with each culture medium (culture medium compositions 1 to 6) in Table 1. Coating, seeding, and culture medium exchange were carried out according to the F-hiSIEC instruction manual to obtain a cell sheet. The total RNA was extracted from the cells on the Day 9. For RNA extraction, the cells were lysed with Qiazol (QIAGEN), 20% of chloroform was added thereto, mixed, and centrifuged at 12,000 g for 10 minutes to obtain a solution, and the supernatant of the solution was recovered. Total RNA was extracted from the supernatant according to the manual using an RNeasy mini kit (QIAGEN). cDNA was synthesized from the total RNA using a High Capacity RNA-to-cDNA kit (Applied Biosystems) according to the manual. The obtained cDNA was subjected to the measurement of the gene expression level by using a ViiA7 real-time PCR system (Applied Biosystems) with a Taqman Gene Expression Assay system and a Taqman Gene Expression Master Mix (Applied Biosystems). The Taqman Assay ID used were as follows: 18s: 03003631_g1, CHGA: Hs00900370_m1, TPH1: Hs00188220_m1, PYY: Hs00373890_g1, and REG4: Hs00230746_m1.
(§2) Gene expression levels for comparison are indicated in terms of relative value in a case where the expression in the control group cultured in the F-hiSIEC Culture Medium is corrected with the expression level of the internal standard gene 18S according to the […] and then is set to 1.

[2] = tested on: Human iPS cell-derived intestinal epithelial cells F-hiSIEC; experiment: Gene expression of EEC markers in F-hiSIEC cells cultured with LY411575 or DAPT added (culture media of Table 2, real-time PCR, Day 9); assay type: cell-based
Description: as §1, with “compositions 7” for “compositions 1”, “to 13)” for “to 6)”, “Table 2.” for “Table 1.”, “18s: 03003631_g1.” for “18s: 03003631_g1,”, “CHGA: Hs00900370_m1.” for “CHGA: Hs00900370_m1, TPH1: Hs00188220_m1,”, “and NEUROG3: Hs01875204_s1.” for “and REG4: Hs00230746_m1.”
as §2

[3] = LY411575 2 μmol/L addition group (culture medium composition 11), among compositions 7 to 13
[4] = LY411575 addition groups (0.5 to 2.0 μmol/L) compared with DAPT addition groups (5 to 10 μmol/L), no EGF, FIG. 2

C[C@H](NC(=O)[C@@H](O)c1cc(F)cc(F)c1)C(=O)N[C@@H]1C(=O)N(C)c2ccccc2-c2ccccc21 [LY411575]
expression of CHGA [1]: remarkably high
expression of PYY [1]: remarkably high
expression of Reg4 [1]: remarkably high
expression of TPH1 [1]: remarkably high
expression level of CHGA [2, 3]: highest
expression level of NEUROG3 [2, 3]: highest
expression level of PYY [2, 3]: highest
expression of CHGA [2, 4]: high
expression of PYY [2, 4]: remarkably high
